The values that follow come from patent publication US11858941B2, “Heterocyclic and heteroaryl compounds for treating Huntington's disease” (PTC THERAPEUTICS, INC., priority 2018, dated 2024).

This assay has as its system Endogenous Huntingtin Protein. As to the kind of experiment: Endogenous Huntingtin Protein Assay (Meso Scale Discovery ELISA-based electrochemiluminescence). Type of assay: cell-based. The following applies: MSD plates coated with MW1 (expanded polyglutamine) or MAB2166 capture antibody; lysates. In short, it runs like this:
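MSD electrochemiluminescence sandwich ELISA: MW1 (expanded polyQ) or MAB2166 capture antibody at 1 μg/mL, samples incubated overnight at 4° C. Detection with rabbit monoclonal #5656S then SULFO-TAG anti-rabbit antibody, each 0.25 μg/mL for 1 h at room temperature.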
On the technique in general: ELISA stands for enzyme-linked immunosorbent assay.

By IC50 is commonly meant the concentration needed to halve the response being measured. The low end stands for greater potency, the high end for weaker potency. Compound `CC1(C)CC(n2nnc3cc(-c4ccc(-c5ncc(C#N)s5)cc4O)nnc32)CC(C)(C)N1` [Cpd 110, 2-{3-hydroxy-4-[3-(2,2,6,6-tetramethylpiperidin-4-yl)-3H-[1,2,3]triazolo[4,5-c]pyridazin-6-yl]phenyl}-1,3-thiazole-5-carbonitrile] displayed an IC50 of 100 to 500 nM. Next, `Oc1cc(-c2cn[nH]c2)ccc1-c1cc2[nH]cc(C3=CCNCC3)c2nn1` [Cpd 11, 5-(1H-pyrazol-4-yl)-2-[7-(1,2,3,6-tetrahydropyridin-4-yl)-5H-pyrrolo[3,2-c]pyridazin-3-yl]phenol]: 1000 to 3000 nM. Next, `CC1(C)CC(n2nnc3cc(-c4ncc(-c5cn[nH]c5)cc4O)nnc32)CC(C)(C)N1` [Cpd 140, 5-(1H-pyrazol-4-yl)-2-[3-(2,2,6,6-tetramethylpiperidin-4-yl)-3H-[1,2,3]triazolo[4,5-c]pyridazin-6-yl]pyridin-3-ol]: no more than 100 nM; `Cn1cnc2cc(-c3cc4nnn(C5CC(C)(C)NC(C)(C)C5)c4nn3)c(O)cc21` [Cpd 92, 1-methyl-5-[3-(2,2,6,6-tetramethylpiperidin-4-yl)-3H-[1,2,3]triazolo[4,5-c]pyridazin-6-yl]-1H-benzimidazol-6-ol]: 1000 to 3000 nM. In the case of `Oc1cc(-c2cn[nH]c2)ccc1-c1cnc2c(cnn2C2CCNCC2)n1` [Cpd 19, 2-[1-(piperidin-4-yl)-1H-pyrazolo[3,4-b]pyrazin-5-yl]-5-(1H-pyrazol-4-yl)phenol], the IC50 lay within 1000 to 3000 nM. Next, `CC1(C)CC(n2nnc3cc(-c4cc5cn[nH]c5cc4O)nnc32)CC(C)(C)N1` [Cpd 94, 5-[3-(2,2,6,6-tetramethylpiperidin-4-yl)-3H-[1,2,3]triazolo[4,5-c]pyridazin-6-yl]-1H-indazol-6-ol]: 500 to 1000 nM. Next, `CC1(C)CC(n2nnc3cc(-c4ccc(-c5cn[nH]c5)cc4O)nnc32)CC(C)(C)N1` [Cpd 7, 5-(1H-pyrazol-4-yl)-2-[3-(2,2,6,6-tetramethylpiperidin-4-yl)-3H-[1,2,3]triazolo[4,5-c]pyridazin-6-yl]phenol]: no more than 100 nM; `CC1(C)CC(n2nnc3cc(-c4cc(F)c(-c5cn[nH]c5)cc4O)nnc32)CC(C)(C)N1` [Cpd 35, 4-fluoro-5-(1H-pyrazol-4-yl)-2-[3-(2,2,6,6-tetramethylpiperidin-4-yl)-3H-[1,2,3]triazolo[4,5-c]pyridazin-6-yl]phenol]: no more than 100 nM; `CC1(C)CC(n2nnc3cc(-c4ccc(-c5ccncn5)cc4O)nnc32)CC(C)(C)N1` [Cpd 75, 5-(pyrimidin-4-yl)-2-[3-(2,2,6,6-tetramethylpiperidin-4-yl)-3H-[1,2,3]triazolo[4,5-c]pyridazin-6-yl]phenol]: 100 to 500 nM. `CC1(C)C=C(c2c[nH]c3cc(-c4ccc(-c5cn[nH]c5)cc4O)nnc23)CC(C)(C)N1` [Cpd 20, 5-(1H-pyrazol-4-yl)-2-[7-(2,2,6,6-tetramethyl-1,2,3,6-tetrahydropyridin-4-yl)-5H-pyrrolo[3,2-c]pyridazin-3-yl]phenol] returned an IC50 of no more than 100 nM.

In turn, `Cc1ncc(-c2ccc(-c3cc4nnn(C5CC(C)(C)NC(C)(C)C5)c4nn3)c(O)c2)o1` [Cpd 158, 5-(2-methyl-1,3-oxazol-5-yl)-2-[3-(2,2,6,6-tetramethylpiperidin-4-yl)-3H-[1,2,3]triazolo[4,5-c]pyridazin-6-yl]phenol] showed an IC50 of no more than 100 nM. The compound `Cn1cc(-c2ccc(-c3cc4cnn(C5CC(C)(C)NC(C)(C)C5)c4nn3)c(O)c2)c(F)n1` [Cpd 148] gave an IC50 of no more than 100 nM. Next, `CC1(C)CC(n2ncc3cc(-c4ccc(-c5ccncc5)cc4O)nnc32)CC(C)(C)N1` [Cpd 165, 5-(pyridin-4-yl)-2-[1-(2,2,6,6-tetramethylpiperidin-4-yl)-1H-pyrazolo[3,4-c]pyridazin-5-yl]phenol]: no more than 100 nM; `CC1(C)CC(n2ccc3cc(-c4ncc(-c5cn[nH]c5)cc4O)nnc32)CC(C)(C)N1` [Cpd 136, 5-(1H-pyrazol-4-yl)-2-[7-(2,2,6,6-tetramethylpiperidin-4-yl)-7H-pyrrolo[2,3-c]pyridazin-3-yl]pyridin-3-ol]: no more than 100 nM.
